In assay [1] the test system is HeLa. Put plainly: In vitro inhibitory concentration for cytotoxic activity was tested against HeLa cells. Format: functional, cell-based. The note with it: Homo sapiens.
The test system of assay [2] is HEL. Put plainly: In vitro inhibitory concentration for antiviral activity was tested against HEL cells. Format: functional, cell-based. The note with it: Homo sapiens.
Assay [3] relates to Vero. Put plainly: (§1) In vitro minimum inhibitory concentration for antiviral activity was tested against Herpes simplex virus type 1(HSV-1). Type of assay: functional. The settings on record: Chlorocebus sabaeus.
Assay [4] concerns HEL. Description: (§2) In vitro minimum inhibitory concentration for antiviral activity was tested against Varicella-Zoster virus(VZV). Type of assay: functional. The note with it: Homo sapiens.
Assay [5] relates to Vero. Put plainly: In vitro inhibitory concentration for antiviral activity was tested against vero cells. Format: functional, cell-based. The settings on record: Chlorocebus sabaeus.
Assay [6] deals with Human alphaherpesvirus 1. The description is as §1. Format: functional.
Assay [7] has as its system Human alphaherpesvirus 3. The assay is described as §2. Type of assay: functional.

Values after ≈ are worked out from the molar mass of the structure shown. Some results are limits rather than exact numbers.

Usually IC50 stands for the concentration that inhibits the measured activity by half. A lower IC50 goes with higher potency. On to `C=C1C[C@](OC)([C@H](O)C(=O)N[C@@H]2OCO[C@@H]3[C@@H](OC)[C@H](O)[C@@H](CO)O[C@@H]32)O[C@H](C)[C@@H]1C`, for which the IC50 in assay [1] is above 10 µg/mL; in assay [2], above 50 µg/mL; in assay [5] it was above 50 µg/mL. Moreover, the MIC in assay [3] is above 50 µg/mL; in assay [4], 25 µg/mL (≈ 55.9 µM).
For the molecule `C=C1C[C@](OC)([C@@H](O)C(=O)N[C@@H]2OCO[C@H]3[C@@H]2O[C@H](C[C@H](O)CO)C(C)(C)[C@@H]3OC)O[C@H](C)[C@@H]1C`, the IC50 is above 10 µg/mL in assay [1], above 50 µg/mL in assay [2] and above 50 µg/mL in assay [5]. Moreover, the MIC is 50 µg/mL (≈ 99.3 µM) in assay [3] and 12.5 µg/mL (≈ 24.8 µM) in assay [4].
`C=C1C[C@@H](C)O[C@@](OC)([C@H](O)C(=O)N[C@@H]2OCO[C@H]3[C@@H]2O[C@H](C[C@H](O)CO)C(C)(C)[C@@H]3OC)C1`: the half-maximal inhibitory concentration (IC50) in assay [1] is 3 µg/mL (≈ 6.13 µM); in assay [2], above 50 µg/mL; in assay [5], 50 µg/mL (≈ 102 µM). In addition, the MIC in assay [3] was 50 µg/mL (≈ 102 µM); in assay [4], 1.56 µg/mL (≈ 3.19 µM).
For the molecule `CO[C@@H]1[C@H]2OCO[C@@H](NC(=O)[C@@H](O)[C@@]3(OC)CCC[C@@H](C)O3)[C@H]2O[C@H](C[C@H](O)CO)C1(C)C`, the values for the IC50 in assay [1], in assay [2] and in assay [5] were above 10 µg/mL, above 50 µg/mL and above 50 µg/mL, respectively. For the same molecule, the figures for the MIC in assay [3] and in assay [4] were 50 µg/mL (≈ 105 µM) and 3.12 µg/mL (≈ 6.54 µM), respectively.
Turning to `C=C1C[C@](OC)([C@H](O)C(=O)N[C@@H]2OCO[C@@H]3[C@@H](OC)[C@@H]4OC(C)(C)OC[C@H]4O[C@@H]32)O[C@H](C)[C@@H]1C`, the figures for the concentration for half-maximal inhibition (IC50) in assay [1], in assay [2] and in assay [5] were 10 µg/mL (≈ 20.5 µM), above 50 µg/mL and 50 µg/mL (≈ 103 µM), respectively. Further, the figures for the MIC in assay [6] and in assay [7] were 50 µg/mL (≈ 103 µM) and 12.5 µg/mL (≈ 25.6 µM), respectively.
In the case of `C=C1C[C@](OC)([C@H](O)C(=O)N[C@H]2OCO[C@@H]3[C@@H](OC)[C@H](O)[C@@H](CO)O[C@@H]32)O[C@H](C)[C@@H]1C`, the IC50 in assay [1] is 1 µg/mL (≈ 2.23 µM); in assay [2], above 50 µg/mL; in assay [5], 25 µg/mL (≈ 55.9 µM). In addition, the MIC in assay [3] stood at 25 µg/mL (≈ 55.9 µM); in assay [4], 3.12 µg/mL (≈ 6.98 µM).
For the molecule `C=C1C[C@](OC)([C@@H](O)C(=O)N[C@H]2OCO[C@H]3[C@@H]2O[C@H](C[C@H](O)CO)C(C)(C)[C@@H]3OC)O[C@H](C)[C@@H]1C`, the half-inhibitory concentration (IC50) in assay [1] is above 10 µg/mL; in assay [2], 12.5 µg/mL (≈ 24.8 µM); in assay [5] it was 12.5 µg/mL (≈ 24.8 µM). Also, the MIC in assay [3] was 50 µg/mL (≈ 99.3 µM); in assay [4], below 0.391 µg/mL.
Take `C=C1C[C@@H](C)O[C@@](OC)([C@H](O)C(=O)N[C@H]2OCO[C@H]3[C@@H]2O[C@H](C[C@H](O)CO)C(C)(C)[C@@H]3OC)C1`: the concentration for half-maximal inhibition (IC50) in assay [1] was below 0.03 µg/mL; in assay [2], below 0.391 µg/mL; in assay [5], below 0.391 µg/mL. For the same molecule, the MIC in assay [3] and in assay [4] was below 0.391 µg/mL each time.
As to `CO[C@@H]1[C@H]2OCO[C@H](NC(=O)[C@@H](O)[C@@]3(OC)CCC[C@@H](C)O3)[C@H]2O[C@H](C[C@H](O)CO)C1(C)C`, the figures for the IC50 in assay [1], in assay [2] and in assay [5] were 0.03 µg/mL (≈ 0.0628 µM), 1.56 µg/mL (≈ 3.27 µM) and 0.391 µg/mL (≈ 0.819 µM), respectively. Besides, the figures for the MIC in assay [3] and in assay [4] were 3.12 µg/mL (≈ 6.54 µM) and below 0.391 µg/mL, respectively.
Consider `C=C1C[C@](OC)([C@H](O)C(=O)N[C@H]2OCO[C@@H]3[C@@H](OC)[C@@H]4OC(C)(C)OC[C@H]4O[C@@H]32)O[C@H](C)[C@@H]1C`, for which the IC50 in assay [1] was 3 µg/mL (≈ 6.15 µM); in assay [2] it was above 50 µg/mL; in assay [5], above 50 µg/mL. For the same molecule, the MIC in assay [6] is 50 µg/mL (≈ 103 µM); in assay [7], 12.5 µg/mL (≈ 25.6 µM).
As to `C=C1C[C@](OC)([C@H](O)C(=O)N[C@@H]2OCO[C@H]3[C@@H]2O[C@H](C[C@H](O)CO)C(C)(C)[C@@H]3OC)O[C@H](C)[C@@H]1C`, the IC50 in assay [1] turned out to be 3 µg/mL (≈ 5.96 µM); in assay [2] it was 12.5 µg/mL (≈ 24.8 µM); in assay [5], 12.5 µg/mL (≈ 24.8 µM). Besides, the MIC in assay [3] stood at 12.5 µg/mL (≈ 24.8 µM); in assay [4] it was 1.56 µg/mL (≈ 3.1 µM).
`Nc1nc2c(ncn2COCCO)c(=O)[nH]1` [ACYCLOVIR]: the concentration for half-maximal inhibition (IC50) is above 50 µg/mL in assay [2] and 50 µg/mL (≈ 222 µM) in assay [5]. In assay [6], this molecule showed an MIC of 1.56 µg/mL (≈ 6.94 µM).
Turning to `O=c1[nH]cc(F)c(=O)[nH]1` [FLUOROURACIL], in assay [1], half-maximal inhibition (IC50) required 3 µg/mL (≈ 23.1 µM).
Regarding `C=C1C[C@](OC)([C@H](O)C(=O)N[C@H]2OCO[C@H]3[C@@H]2O[C@H](C[C@H](O)CO)C(C)(C)[C@@H]3OC)O[C@H](C)[C@@H]1C` [MYCALAMIDE A], the IC50 was below 0.03 µg/mL in assay [1], below 0.391 µg/mL in assay [2] and below 0.391 µg/mL in assay [5]. Besides, the MIC in assay [3] and in assay [4] was below 0.391 µg/mL in each case.

Values taken from ChEMBL document CHEMBL1130504, “Synthesis and biological activity of artificial analogs of mycalamide A” (Bioorg Med Chem Lett, 1997).
